Data from US7585895B2, “Therapeutic substituted cyclopentanes” (Allergan, Inc., priority 2005, dated 2009).

How the values were obtained:
Format in all cases: cell-based
hFP = molecular target: T1, hFP (Homo sapiens, UniProt P43088); assay: FLIPR calcium signal, FP; conditions: HEK-293(EBNA)
T1 construct: expressed in transfected cells
Method: (§1) HEK-293(EBNA) cells, stably expressing one type or subtype of recombinant human prostaglandin receptors (prostaglandin receptors expressed: hDP/Gqs5; hEP1; hEP2/Gqs5; hEP3A/Gqi5; hEP4/Gqs5; hFP; hIP; hTP), were cultured in 100 mm culture dishes in high-glucose DMEM medium containing 10% fetal bovine serum, 2 mM 1-glutamine, 250 μg/ml geneticin (G418) and 200 μg/ml hygromycin B as selection markers, and 100 units/ml penicillin G, 100 μg/ml streptomycin and 0.25 μg/ml amphotericin B.
(§2) Cells were seeded at a density of 5×10^4 cells per well in Biocoat® Poly-D-lysine-coated black-wall, clear-bottom 96-well plates (Becton-Dickinson) and allowed to attach overnight in an incubator at 37° C. Cells were then washed two times with HBSS-HEPES buffer (Hanks Balanced Salt Solution without bicarbonate and phenol red, 20 mM HEPES, pH 7.4) using a Denley Cellwash plate washer (Labsystems). After 45 minutes of dye-loading in the dark, using the calcium-sensitive dye Fluo-4 AM at a final concentration of 2 μM, plates were washed four times with HBSS-HEPES buffer to remove excess dye leaving 100 μl in each well. Plates were re-equilibrated to 37° C. for a few minutes.
(§3) Cells were excited with an Argon laser at 488 nm, and emission was measured through a 510-570 nm bandwidth emission filter (FLIPR™, Molecular Devices, Sunnyvale, Calif.). Drug solution was added in a 50 μl volume to each well to give the desired final concentration. The peak increase in fluorescence intensity was recorded for each well. On each plate, four wells each served as negative (HBSS-HEPES buffer) and positive controls (standard agonists: BW245C (hDP); PGE2 (HEP1; hEP2/Gqs5; hEP3A/Gqi5; hEP4/Gqs5); PGF2α (hFP); carbacyclin (hIP); U-46619 (hTP), depending on receptor). The peak fluorescence change in each drug-containing well was then expressed relative to the controls.
(§4) Compounds were tested in a high-throughput (HTS) or concentration-response (CoRe) format. In the HTS format, forty-four compounds per plate were examined in duplicates at a concentration of 10^−5 M. To generate concentration-response curves, four compounds per plate were tested in duplicates in a concentration range between 10^−5 and 10^−11 M. The duplicate values were averaged. In either, HTS or CoRe format each compound was tested on at least 3 separate plates using cells from different passages to give an n≧3.

hEP1 = molecular target: T2, hEP1 (Homo sapiens, UniProt P34995); assay: FLIPR calcium signal, EP1; conditions: HEK-293(EBNA)
T2 construct: expressed in transfected cells
T2 sequence (P34995 1-402): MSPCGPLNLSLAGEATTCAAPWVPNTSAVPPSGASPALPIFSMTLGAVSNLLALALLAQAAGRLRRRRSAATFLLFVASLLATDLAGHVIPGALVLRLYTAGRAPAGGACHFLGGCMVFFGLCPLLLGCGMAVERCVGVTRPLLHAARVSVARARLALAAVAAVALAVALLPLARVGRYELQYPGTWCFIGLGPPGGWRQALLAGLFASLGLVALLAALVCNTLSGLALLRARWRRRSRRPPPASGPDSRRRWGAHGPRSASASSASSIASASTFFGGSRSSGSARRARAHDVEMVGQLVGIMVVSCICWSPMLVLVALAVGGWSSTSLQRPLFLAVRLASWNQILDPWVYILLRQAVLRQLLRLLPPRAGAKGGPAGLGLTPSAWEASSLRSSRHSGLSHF
Method: as §1, §2, §3, §4

hDP/Gqs5 = molecular target: T3, hDP/Gqs5 (Homo sapiens, UniProt Q13258); assay: FLIPR calcium signal, DP; conditions: HEK-293(EBNA)
T3 construct: expressed in transfected cells
T3 sequence (Q13258 1-359): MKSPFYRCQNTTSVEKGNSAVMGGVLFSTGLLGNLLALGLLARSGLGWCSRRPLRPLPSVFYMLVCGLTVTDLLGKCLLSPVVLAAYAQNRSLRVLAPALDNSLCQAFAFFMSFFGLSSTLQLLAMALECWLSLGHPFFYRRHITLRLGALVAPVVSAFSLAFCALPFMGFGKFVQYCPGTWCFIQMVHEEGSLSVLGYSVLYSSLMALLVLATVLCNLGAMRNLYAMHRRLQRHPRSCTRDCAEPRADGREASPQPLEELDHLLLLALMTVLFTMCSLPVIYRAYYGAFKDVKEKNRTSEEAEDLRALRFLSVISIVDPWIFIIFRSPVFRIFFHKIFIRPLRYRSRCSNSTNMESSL
Method: as §1, §2, §3, §4

hTP = molecular target: T4, hTP (Homo sapiens, UniProt P21731); assay: FLIPR calcium signal, TP; conditions: HEK-293(EBNA)
T4 construct: expressed in transfected cells
T4 sequence (P21731 1-343): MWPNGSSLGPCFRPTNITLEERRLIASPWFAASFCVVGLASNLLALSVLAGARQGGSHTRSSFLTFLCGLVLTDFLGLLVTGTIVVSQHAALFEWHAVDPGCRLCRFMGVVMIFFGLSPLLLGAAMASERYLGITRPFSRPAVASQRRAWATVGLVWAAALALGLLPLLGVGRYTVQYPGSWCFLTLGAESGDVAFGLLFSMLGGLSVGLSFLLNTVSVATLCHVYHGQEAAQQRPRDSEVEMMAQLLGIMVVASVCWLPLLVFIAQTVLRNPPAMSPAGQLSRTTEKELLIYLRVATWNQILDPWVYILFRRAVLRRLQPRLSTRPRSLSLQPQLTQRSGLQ
Method: as §1, §2, §3, §4

hIP = molecular target: T5, hIP (Homo sapiens, UniProt P43119); assay: FLIPR calcium signal, IP; conditions: HEK-293(EBNA)
T5 construct: expressed in transfected cells
T5 sequence (P43119 whole entry): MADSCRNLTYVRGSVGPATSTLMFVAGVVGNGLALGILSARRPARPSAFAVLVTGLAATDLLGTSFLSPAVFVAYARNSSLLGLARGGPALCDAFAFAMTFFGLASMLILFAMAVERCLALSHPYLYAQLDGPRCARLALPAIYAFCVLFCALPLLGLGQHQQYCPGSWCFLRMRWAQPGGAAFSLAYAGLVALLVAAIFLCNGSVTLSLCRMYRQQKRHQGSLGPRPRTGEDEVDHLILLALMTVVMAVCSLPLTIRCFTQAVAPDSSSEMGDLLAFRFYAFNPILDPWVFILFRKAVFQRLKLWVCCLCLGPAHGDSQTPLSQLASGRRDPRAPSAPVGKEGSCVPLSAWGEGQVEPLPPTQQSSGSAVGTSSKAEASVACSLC
Method: as §1, §2, §3, §4

hEP2/Gqs5 = molecular target: T6, hEP2/Gqs5 (Homo sapiens, UniProt P43116); assay: FLIPR calcium signal, EP2; conditions: HEK-293(EBNA), value outside parentheses, read-out: Ca2+ Signal-EC50 (nM) EP2
T6 construct: expressed in transfected cells
T6 sequence (P43116 whole entry): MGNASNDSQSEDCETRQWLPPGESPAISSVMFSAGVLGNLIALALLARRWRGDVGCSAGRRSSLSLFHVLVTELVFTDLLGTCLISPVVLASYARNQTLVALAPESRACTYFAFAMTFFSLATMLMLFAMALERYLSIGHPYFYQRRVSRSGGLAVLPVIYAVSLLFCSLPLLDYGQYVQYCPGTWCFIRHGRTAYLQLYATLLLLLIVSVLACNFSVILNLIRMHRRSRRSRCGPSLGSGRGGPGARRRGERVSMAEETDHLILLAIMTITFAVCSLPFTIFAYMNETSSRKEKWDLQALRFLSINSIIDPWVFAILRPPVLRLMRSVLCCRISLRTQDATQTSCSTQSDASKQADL
Method: as §1, §2, §3, §4

hEP4/Gqs5 = molecular target: T7, hEP4/Gqs5 (Homo sapiens, UniProt P35408); assay: FLIPR calcium signal, EP4; conditions: HEK-293(EBNA)
T7 construct: expressed in transfected cells
T7 sequence (P35408 whole entry): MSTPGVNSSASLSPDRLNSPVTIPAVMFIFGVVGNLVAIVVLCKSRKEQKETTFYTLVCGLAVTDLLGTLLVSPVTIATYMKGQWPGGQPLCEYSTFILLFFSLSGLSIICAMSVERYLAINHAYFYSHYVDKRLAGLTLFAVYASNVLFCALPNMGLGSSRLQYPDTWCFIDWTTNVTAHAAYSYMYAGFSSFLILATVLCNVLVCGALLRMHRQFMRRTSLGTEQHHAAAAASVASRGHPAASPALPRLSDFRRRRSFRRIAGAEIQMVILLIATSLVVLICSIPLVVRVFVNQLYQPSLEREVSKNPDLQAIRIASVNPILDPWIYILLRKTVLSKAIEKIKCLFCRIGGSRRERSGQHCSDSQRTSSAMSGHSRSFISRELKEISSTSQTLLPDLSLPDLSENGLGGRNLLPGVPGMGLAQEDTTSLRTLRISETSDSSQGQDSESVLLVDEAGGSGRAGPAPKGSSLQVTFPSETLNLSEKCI
Method: as §1, §2, §3, §4

hEP3A/Gqi5 = molecular target: T8, hEP3A/Gqi5 (Homo sapiens, UniProt P43115); assay: FLIPR calcium signal, EP3; conditions: HEK-293(EBNA)
T8 construct: expressed in transfected cells
T8 sequence (P43115 1-390): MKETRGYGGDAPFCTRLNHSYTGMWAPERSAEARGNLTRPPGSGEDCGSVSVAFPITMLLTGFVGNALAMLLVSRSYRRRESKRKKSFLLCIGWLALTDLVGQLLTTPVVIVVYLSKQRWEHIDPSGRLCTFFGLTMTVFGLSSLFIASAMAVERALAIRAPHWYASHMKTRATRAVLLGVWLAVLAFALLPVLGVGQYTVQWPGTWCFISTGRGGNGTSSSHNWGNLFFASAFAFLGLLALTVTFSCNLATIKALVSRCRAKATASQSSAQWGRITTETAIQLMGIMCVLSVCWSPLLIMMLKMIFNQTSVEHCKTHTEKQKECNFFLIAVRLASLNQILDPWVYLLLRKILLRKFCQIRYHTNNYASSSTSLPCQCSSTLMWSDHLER
Method: as §1, §2, §3, §4

T1 sequence (P43088 whole entry): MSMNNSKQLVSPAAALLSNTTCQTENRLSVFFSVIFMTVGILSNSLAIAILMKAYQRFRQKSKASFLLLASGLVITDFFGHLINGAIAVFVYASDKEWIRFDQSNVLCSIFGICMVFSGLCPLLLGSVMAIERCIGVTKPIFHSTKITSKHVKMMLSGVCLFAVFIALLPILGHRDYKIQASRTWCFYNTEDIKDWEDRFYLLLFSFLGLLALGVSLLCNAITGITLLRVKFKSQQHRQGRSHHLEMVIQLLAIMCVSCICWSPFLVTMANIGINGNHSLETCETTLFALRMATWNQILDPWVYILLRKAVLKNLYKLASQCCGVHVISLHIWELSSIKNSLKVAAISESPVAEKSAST

CCCCCC(O)c1ccc([C@@H]2[C@@H](C/C=C\CCCC(=O)OC)[C@H](Cl)C[C@H]2O)cc1 (mixture of isomers) [Entry 10, (Z)-7-{(1R,2S,3R,5R)-5-Chloro-3-hydroxy-2-[4-(1-hydroxy-hexyl)-phenyl]-cyclopentyl}-hept-5-enoic acid methyl ester]
Ca2+ Signal-EC50 (nM) FP (hFP): not active
Ca2+ Signal-EC50 (nM) EP1 (hEP1): not active
Ca2+ Signal-EC50 (nM) DP (hDP/Gqs5): not active
Ca2+ Signal-EC50 (nM) TP (hTP): not active
Ca2+ Signal-EC50 (nM) IP (hIP): not active
EC50 (hEP2/Gqs5): 3960 nM
Ca2+ Signal-EC50 (nM) EP4 (hEP4/Gqs5): not active
Ca2+ Signal-EC50 (nM) EP3 (hEP3A/Gqi5): not active

CCCCCC(O)c1ccc([C@@H]2[C@@H](CCCc3cccc(C(=O)O)c3)[C@H](Cl)C[C@H]2O)cc1 (stereo partly drawn) [Entry 1, 3-(3-{(1R,2S,3R,5R)-5-Chloro-3-hydroxy-2-[4-(1-hydroxy-hexyl)-phenyl]-cyclopentyl}-propyl)-benzoic acid]
Ca2+ Signal-EC50 (nM) FP (hFP): not active
EC50 (hEP1; read-out: Ca2+ Signal-EC50 (nM) EP1): 917 nM
Ca2+ Signal-EC50 (nM) DP (hDP/Gqs5): not active
Ca2+ Signal-EC50 (nM) TP (hTP): not active
Ca2+ Signal-EC50 (nM) IP (hIP): not active
EC50 (hEP2/Gqs5): 2450 nM
Ca2+ Signal-EC50 (nM) EP4 (hEP4/Gqs5): not active
EC50 (hEP3A/Gqi5; read-out: Ca2+ Signal-EC50 (nM) EP3): 4150 nM
